The values that follow come from ChEMBL document CHEMBL5584350, “Structural and Biochemical Insights into the Mechanism of Action of the Clinical USP1 Inhibitor, KSQ-4279” (J Med Chem, 2024).

The structures appear in SMILES notation. The source made the active and inactive calls. No cut-off for these calls is given here.

In test [1] the target is T1, Ubiquitin carboxyl-terminal hydrolase 1 (Homo sapiens) (UniProt O94782).
T1 sequence (whole entry): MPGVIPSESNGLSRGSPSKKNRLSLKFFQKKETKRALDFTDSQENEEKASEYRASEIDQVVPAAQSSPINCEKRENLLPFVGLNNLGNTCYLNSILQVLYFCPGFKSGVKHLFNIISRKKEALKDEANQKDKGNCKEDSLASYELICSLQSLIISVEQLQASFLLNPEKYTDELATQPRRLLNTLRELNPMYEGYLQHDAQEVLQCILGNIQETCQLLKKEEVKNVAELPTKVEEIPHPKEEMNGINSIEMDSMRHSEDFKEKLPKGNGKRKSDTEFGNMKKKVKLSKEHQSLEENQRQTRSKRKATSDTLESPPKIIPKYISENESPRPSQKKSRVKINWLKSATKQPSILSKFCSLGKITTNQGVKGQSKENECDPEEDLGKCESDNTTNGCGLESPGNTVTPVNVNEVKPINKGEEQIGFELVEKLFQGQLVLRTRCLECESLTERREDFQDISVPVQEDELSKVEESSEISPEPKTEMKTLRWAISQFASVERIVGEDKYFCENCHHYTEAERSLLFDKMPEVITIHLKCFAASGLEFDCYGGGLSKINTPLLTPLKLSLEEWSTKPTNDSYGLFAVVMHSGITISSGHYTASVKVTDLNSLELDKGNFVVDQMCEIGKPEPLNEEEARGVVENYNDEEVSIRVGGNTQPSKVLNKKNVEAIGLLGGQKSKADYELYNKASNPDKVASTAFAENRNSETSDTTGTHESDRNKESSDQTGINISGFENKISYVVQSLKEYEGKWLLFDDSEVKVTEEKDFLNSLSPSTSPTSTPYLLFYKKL
The test is described as follows: Inhibition of human USP1 using FANC1-FANCD2Ub-ds DNA as substrate assessed as reduction in FANCD2 deubiquitination at 25 uM measured after 0 to 20 mins by instant-blue coomassie staining based SDS-PAGE analysis. The following applies: time 0-20 min.

Test [2] in a line: Selectivity index, ratio of inhibition of USP12 (unknown origin) to IC50 for human USP1.
For test [3], the target named is T1, Ubiquitin carboxyl-terminal hydrolase 1 (Homo sapiens). The following applies: dose 50.0 µM.
Description: Thermal stabilization of human USP1 assessed as increase in melting temperature at 50 uM by SYPRO Orange dye based thermal shift assay
The next test is filed under the species Homo sapiens. Put plainly: Thermal stabilization of human His6-smt3 fused USP7 catalytic domain (208 to 560 residues) expressed in Escherichia coli assessed as increase in melting temperature at 50 uM by SYPRO orange dye based thermal shift assay.
Test [4] addresses Ubiquitin carboxyl-terminal hydrolase 11 (Homo sapiens) (UniProt P51784). The test is described as follows: Inhibition of USP11 (unknown origin).
Test [5] has as its target Ubiquitin carboxyl-terminal hydrolase 46 (Homo sapiens) (UniProt P62068). Put plainly: Inhibition of human USP46 at 100 uM by ubiquitin-rhodamine assay relative to control.
Test [6] has as its target Ubiquitin carboxyl-terminal hydrolase 12 (Homo sapiens) (UniProt O75317). The test is described as follows: Inhibition of human USP12 at 100 uM by ubiquitin-rhodamine assay relative to control.
In test [7] the test system is Ubiquitin carboxyl-terminal hydrolase 1 (Homo sapiens), O94782 [UNDEFINED MUTATION]. Put plainly: Binding affinity to human His6 tagged/TEV fused USP1 229 to 408/608 to 737 residues disordered inserts deletion mutant expressed in Sf21 insect cells assessed as displacement of N85 by measuring alpha-chymotrypsin mediated protein truncation at F80 or R74 at 25 uM measured at 10 to 20 mins by instant-blue coomassie staining based SDS-PAGE analysis. Conditions: time 10-20 min.

For test [8] the test system is unchanged. Put plainly: Binding affinity to human His6 tagged/TEV fused USP1 229 to 408/608 to 737 residues disordered inserts deletion mutant expressed in Sf21 insect cells assessed as displacement of N85 by measuring trypsin mediated protein truncation at F80 or R74 at 25 uM measured at 10 to 20 mins by instant-blue coomassie staining based SDS-PAGE analysis. The following applies: time 10-20 min.

In test [9] the target is Ubiquitin carboxyl-terminal hydrolase 46 (Homo sapiens) (UniProt P62068). Put plainly: Inhibition of USP46 (unknown origin) at 10 uM relative to control.
Test [10] concerns the target Ubiquitin carboxyl-terminal hydrolase 12 (Homo sapiens) (UniProt O75317). Put plainly: Inhibition of USP12 (unknown origin) at 10 uM relative to control.

Ubiquitin carboxyl-terminal hydrolase 11 (Homo sapiens), sequence (P51784 whole entry): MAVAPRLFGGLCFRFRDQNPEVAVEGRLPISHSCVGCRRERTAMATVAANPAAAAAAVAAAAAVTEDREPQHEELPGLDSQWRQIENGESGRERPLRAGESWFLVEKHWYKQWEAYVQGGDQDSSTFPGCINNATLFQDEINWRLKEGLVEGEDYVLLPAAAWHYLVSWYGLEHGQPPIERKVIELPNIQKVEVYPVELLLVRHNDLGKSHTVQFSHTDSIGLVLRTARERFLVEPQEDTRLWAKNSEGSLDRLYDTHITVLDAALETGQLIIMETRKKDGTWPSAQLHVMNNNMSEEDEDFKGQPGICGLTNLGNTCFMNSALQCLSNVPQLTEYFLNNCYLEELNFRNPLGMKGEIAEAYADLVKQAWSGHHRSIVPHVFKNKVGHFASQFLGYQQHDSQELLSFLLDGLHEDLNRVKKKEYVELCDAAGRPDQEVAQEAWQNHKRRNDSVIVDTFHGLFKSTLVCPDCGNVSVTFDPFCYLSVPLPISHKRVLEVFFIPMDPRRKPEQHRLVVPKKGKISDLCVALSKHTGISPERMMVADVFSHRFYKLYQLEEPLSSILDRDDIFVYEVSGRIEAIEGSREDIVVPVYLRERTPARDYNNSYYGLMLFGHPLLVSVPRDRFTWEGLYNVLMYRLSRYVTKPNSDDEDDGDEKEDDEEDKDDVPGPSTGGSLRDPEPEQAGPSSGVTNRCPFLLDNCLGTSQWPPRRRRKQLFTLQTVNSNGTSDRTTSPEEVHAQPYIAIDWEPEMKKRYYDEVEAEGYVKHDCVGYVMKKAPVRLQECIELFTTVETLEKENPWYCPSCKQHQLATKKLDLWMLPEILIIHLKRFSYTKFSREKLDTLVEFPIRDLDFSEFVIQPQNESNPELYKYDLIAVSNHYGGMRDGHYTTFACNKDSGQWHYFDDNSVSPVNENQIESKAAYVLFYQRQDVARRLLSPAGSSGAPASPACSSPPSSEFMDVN
Ubiquitin carboxyl-terminal hydrolase 46 (Homo sapiens), sequence (P62068 whole entry): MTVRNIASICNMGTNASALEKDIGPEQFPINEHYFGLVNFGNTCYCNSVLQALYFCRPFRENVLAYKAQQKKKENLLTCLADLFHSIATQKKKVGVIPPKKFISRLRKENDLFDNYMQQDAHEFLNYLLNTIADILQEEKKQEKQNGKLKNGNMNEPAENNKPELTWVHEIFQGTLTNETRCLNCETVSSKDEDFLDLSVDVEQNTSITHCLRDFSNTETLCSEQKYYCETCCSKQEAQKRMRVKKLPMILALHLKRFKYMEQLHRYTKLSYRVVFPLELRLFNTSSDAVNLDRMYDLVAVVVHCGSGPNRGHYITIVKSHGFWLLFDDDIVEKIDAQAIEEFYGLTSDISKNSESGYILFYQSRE
Ubiquitin carboxyl-terminal hydrolase 12 (Homo sapiens), sequence (O75317 whole entry, the tested form may be a part): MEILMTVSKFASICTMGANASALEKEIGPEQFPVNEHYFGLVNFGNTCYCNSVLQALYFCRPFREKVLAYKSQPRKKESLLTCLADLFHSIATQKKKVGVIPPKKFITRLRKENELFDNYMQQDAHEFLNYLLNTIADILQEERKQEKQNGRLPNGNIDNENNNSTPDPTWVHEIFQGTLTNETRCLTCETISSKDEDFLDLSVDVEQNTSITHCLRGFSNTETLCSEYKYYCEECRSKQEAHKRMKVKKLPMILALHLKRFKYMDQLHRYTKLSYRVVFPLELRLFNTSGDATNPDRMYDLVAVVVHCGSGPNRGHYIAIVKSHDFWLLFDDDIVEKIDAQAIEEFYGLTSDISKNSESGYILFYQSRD

Consider `Cc1cnc(-c2ccccc2C(C)C)nc1NCc1ccc(-n2ccnn2)cc1`, for which the inhibition result in test [1] and in test [4] was “inactive” throughout. Also, the Selectivity Index in [2] worked out at 100. Moreover, in [3], the shift in melting temperature (ΔTm) (in general, the change in melting temperature against a reference sample) was 11 °C. For the same compound, the outcome in the test listed under Homo sapiens was inactive.
Consider `COc1ncnc(C2CC2)c1-c1ncc2cnn(Cc3ccc(-c4nc(C(F)(F)F)cn4C(C)C)cc3)c2n1`, for which the inhibition in test [5] and in test [6] was < 50% in each case. Further, the outcome in the test filed under Homo sapiens was inactive. For the same compound, the inhibition (commonly the relative decrease from the control value, in per cent) in test [4] is “inactive”.
`O=C1c2ccccc2C(=O)c2oc(-c3ccccc3)nc21`: the result in test [7] and in test [8] was inactive.
In the case of `CC(C)c1ccccc1-c1ncc2[nH]c(=O)n(Cc3ccc(-c4nc(C(F)(F)F)cn4C)cc3)c2n1`, the inhibition in test [9] and in test [10] was 50% in each case.
